The data set in a line: Dissolution of RebD and RebM. Type of data set: physicochemical. The following applies: without maltooligosaccharides.

With `C=C1C[C@@]23CC[C@H]4[C@@](C)(CCC[C@@]4(C)C(=O)O[C@@H]4O[C@H](CO)[C@@H](O)[C@H](O[C@@H]5O[C@H](CO)[C@@H](O)[C@H](O)[C@H]5O)[C@H]4O[C@@H]4O[C@H](CO)[C@@H](O)[C@H](O)[C@H]4O)[C@@H]2CC[C@]1(O[C@@H]1O[C@H](CO)[C@@H](O)[C@H](O[C@@H]2O[C@H](CO)[C@@H](O)[C@H](O)[C@H]2O)[C@H]1O[C@@H]1O[C@H](CO)[C@@H](O)[C@H](O)[C@H]1O)C3` [RebM, Rebaudioside M], the dissolution result was “do not dissolve completely”. As for `C=C1C[C@@]23CC[C@H]4[C@@](C)(CCC[C@@]4(C)C(=O)O[C@@H]4O[C@H](CO)[C@@H](O)[C@H](O)[C@H]4O[C@@H]4O[C@H](CO)[C@@H](O)[C@H](O)[C@H]4O)[C@@H]2CC[C@]1(O[C@@H]1O[C@H](CO)[C@@H](O)[C@H](O[C@@H]2O[C@H](CO)[C@@H](O)[C@H](O)[C@H]2O)[C@H]1O[C@@H]1O[C@H](CO)[C@@H](O)[C@H](O)[C@H]1O)C3` [RebD, Rebaudioside D], the dissolution result was “do not dissolve completely”.

The values above are taken from patent US12185743B2, “Processes for transglucosylation of steviol glycosides” (Beijing Gingko-Group Biological Technology Co., Ltd., priority 2019, dated 2025).
